# Test results taken from ChEMBL document CHEMBL4251690, “Histone Deacetylase Inhibitors as Treatment for Targeting Multiple Components in Cancer Therapy” (ACS Med Chem Lett, 2018).
# Key:
# Format in all cases: cell-based
# Histone deacetylase [1] = experiment: Inhibition of HDAC in human K562 cells using Boc-K(Ac)-AMC as substrate by fluorescence assay
# Histone deacetylase [2] = experiment: Inhibition of HDAC in human A549 cells using Boc-K(Ac)-AMC as substrate by fluorescence assay
# Histone deacetylase [3] = experiment: Inhibition of HDAC in human HeLa cells using Boc-K(Ac)-AMC as substrate by fluorescence assay
# [4] = target: T1, Histone-lysine N-methyltransferase EHMT2 (Homo sapiens, UniProt Q96KQ7); experiment: Inhibition of G9a in human MDA-MB-231 cells assessed as reduction in H3K9me2 level after 2 days by immunofluorescence in-cell western analysis
# T1 sequence (Q96KQ7 whole entry): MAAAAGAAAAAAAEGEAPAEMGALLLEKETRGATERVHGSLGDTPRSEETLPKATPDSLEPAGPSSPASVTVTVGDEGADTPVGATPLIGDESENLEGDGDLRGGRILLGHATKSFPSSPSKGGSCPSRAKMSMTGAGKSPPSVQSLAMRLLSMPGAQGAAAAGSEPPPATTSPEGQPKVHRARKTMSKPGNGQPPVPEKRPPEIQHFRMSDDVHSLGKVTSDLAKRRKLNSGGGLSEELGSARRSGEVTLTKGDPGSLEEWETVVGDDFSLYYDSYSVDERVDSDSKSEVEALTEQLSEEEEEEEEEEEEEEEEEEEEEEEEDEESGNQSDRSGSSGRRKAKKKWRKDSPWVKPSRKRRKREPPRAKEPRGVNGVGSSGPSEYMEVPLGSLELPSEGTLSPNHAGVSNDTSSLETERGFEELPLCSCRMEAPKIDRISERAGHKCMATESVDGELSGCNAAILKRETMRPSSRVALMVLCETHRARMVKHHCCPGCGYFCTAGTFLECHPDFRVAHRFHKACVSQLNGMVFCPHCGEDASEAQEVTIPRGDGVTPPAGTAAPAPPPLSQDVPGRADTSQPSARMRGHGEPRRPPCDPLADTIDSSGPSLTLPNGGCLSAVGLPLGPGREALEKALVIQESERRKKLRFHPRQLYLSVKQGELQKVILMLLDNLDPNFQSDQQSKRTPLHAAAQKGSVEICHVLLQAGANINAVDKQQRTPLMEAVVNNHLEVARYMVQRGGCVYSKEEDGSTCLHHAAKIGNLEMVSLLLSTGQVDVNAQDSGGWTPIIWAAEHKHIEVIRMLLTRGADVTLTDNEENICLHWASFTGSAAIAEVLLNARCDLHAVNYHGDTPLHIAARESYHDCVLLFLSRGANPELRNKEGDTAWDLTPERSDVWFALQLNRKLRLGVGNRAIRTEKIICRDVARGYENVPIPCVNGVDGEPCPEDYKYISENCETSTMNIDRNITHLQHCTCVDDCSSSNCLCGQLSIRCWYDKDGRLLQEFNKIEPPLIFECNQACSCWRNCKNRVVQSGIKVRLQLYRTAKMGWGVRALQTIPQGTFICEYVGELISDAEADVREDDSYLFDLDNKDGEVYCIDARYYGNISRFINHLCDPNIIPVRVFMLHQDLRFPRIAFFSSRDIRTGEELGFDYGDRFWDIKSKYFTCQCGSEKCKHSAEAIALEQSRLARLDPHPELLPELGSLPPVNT
IC50 (Histone deacetylase [1]) [µM],IC50 (Histone deacetylase [2]) [µM],IC50 (Histone deacetylase [3]) [µM],IC50 [4] [µM],Compound
> 100,> 100,> 100,–,COc1ccc2c(NCCNC(=O)CCCCCCC(=O)NO)nc(N3CCCN(C)CC3)nc2c1
27.75,> 100,15.33,–,COc1ccc2c(NC3CCN(Cc4ccccc4)CC3)nc(NCCNC(=O)CCCCCCC(=O)NO)nc2c1
–,–,–,47,CNC(=O)CCCCC(=O)NCCNc1nc(NC2CCN(C)CC2)c2ccc(OC)cc2n1
5.735,> 100,13.8,–,COc1ccc2c(NC3CCN(Cc4ccccc4)CC3)nc(NCCNC(=O)CCCCCC(=O)NO)nc2c1
